This passage reports IC50 results from ChEMBL document CHEMBL5634134, “Design, synthesis, and biological evaluation of novel 4,4'-bipyridine derivatives acting as CDK9-Cyclin T1 protein-protein interaction inhibitors against triple-negative breast cancer” (Eur J Med Chem, 2023).

A value given as a limit tells only on which side of the number the result lay.

One data set deals with T47D. Briefly: Antiproliferative activity against human T47D cells assessed as inhibition of cell growth by MTT assay. Format: functional, cell-based. On the technique in general: Tetrazolium dyes change colour on reduction, which living cells bring about.
A short description of data set [1]: Cytotoxicity against human MCF-10A cells assessed as inhibition of cell growth by MTT assay. The data set is classed as toxicity, cell-based.
Data set [2] can be described thus: Cytotoxicity against human L02 cells assessed as inhibition of cell growth by MTT assay. Format: toxicity, cell-based.
Data set [3] concerns BT-549. Briefly: Antiproliferative activity against human BT-549 cells assessed as inhibition of cell growth by MTT assay. Format: functional, cell-based.
For another data set, the system named is MDA-MB-468. Put plainly: Antiproliferative activity against human MDA-MB-468 cells assessed as inhibition of cell growth by MTT assay. The data set is classed as functional, cell-based.
Data set [4] in a line: Cytotoxicity against HEK293T cells assessed as inhibition of cell growth by MTT assay. Format: toxicity, cell-based, HEK-293T. The conditions noted are these: human.
The test system of data set [5] is MDA-MB-231. Put plainly: Antiproliferative activity against human MDA-MB-231 cells assessed as inhibition of cell growth by MTT assay. Format: functional, cell-based.
Another data set deals with MDA-MB-436. Put plainly: cells. The conditions noted are these: Homo sapiens.
Data set [6] concerns BT-549. Briefly: cells. To be noted: Homo sapiens.
The subject of data set [7] is MDA-MB-231. Put plainly: cells. To be noted: Homo sapiens.

On to `CCOc1cc(/C=N/O)ccc1OCC#CC1c2c(cc3c(c2OC)OCO3)CCN1C` (stereo not given), for which the IC50 (in general, the midpoint of a concentration-inhibition curve) with T47D is 52.5 µM; in data set [1] it was 35.5 µM; in data set [2], above 100 µM; in the data set on BT-549 [3] it was 12.6 µM; with MDA-MB-468, 7.4 µM; in data set [4], above 100 µM. Moreover, the IC50 in the data set on MDA-MB-231 [5] is 6.2 µM.
As for `COc1cc(F)ccc1-c1ncnc(Nc2cccc(C[S@](C)(=N)=O)c2)n1` [ATUVECICLIB], the values for the IC50 with MDA-MB-436, with BT-549 [6] and with MDA-MB-231 [7] were 0.63 µM, 2.01 µM and 1.32 µM, respectively.
